Laboratory results from article PMC11968843, “Sulphostin-inspired N-phosphonopiperidones as selective covalent DPP8 and DPP9 inhibitors” (Nature Communications, 2025).
“And” between values parts separate entries of the source, which are not always exact repeats. Identical values can stand only once. Like-named read-outs stand apart in the source and are kept apart here.

Key:
DPP8 [1] = molecular target: T1, DPP8 (Homo sapiens, UniProt Q6V1X1); experiment: biochemical; format: biochemical
T1 construct: purchased Proteros Biostructures GmbH, Germany
Protocol: (§1) Enzyme activity of DPP4, DPP8, DPP9 (Proteros Biostructures GmbH, Germany) and PREP (Sigma Aldrich, USA) was determined by measuring the initial velocity of AMC release from the fluorogenic substrate GP-AMC (Sigma Aldrich, USA) using a Tecan Spark® 10 M multimode microplate reader (Tecan Group Ltd., Switzerland) in activity buffer (20 mM HEPES/KOH pH 7.3, 110 mM potassium acetate, 2 mM Mg acetate, 0.5 mM EGTA, 0.02% Tween 20, supplemented with 1 mM DTT) and a final volume of 20 μL for maximal 60 min at 30 °C. Prior to activity measurement, 10 nM enzyme was incubated for 45 min at 30 °C and gentle shaking with the inhibitor compounds in concentrations ranging from 0 to 100 μM. The compounds were dissolved in DMSO and diluted in activity buffer (final DMSO concentration: 1%). […] IC50 values were calculated using Graph-Pad Prism v10.2.3 using the equation: [Inhibitor] vs. response—Variable slope (four parameters). All measurements were performed in triplicates and error bars represent standard errors of the fit.

DPP8 [2] = molecular target: T1, DPP8; experiment: Time-dependent DPP8 inhibition kinetics (kobs, KI, kinact, kapp); format: biochemical
Protocol: (§2) To calculate the reaction rate of covalent bond formation between DPP proteins and inhibitor, kinact, KI and kapp was determined as previously described[30],[51]. Therefore, 250 µM GP-AMC was added simultaneously with a serial dilution of the inhibitor to 10 nM enzyme. Enzyme activity was measured for a maximum of 120 min at 30 °C, and fluorescence intensities were then plotted against time. Data was fitted to the following equation: Y=(vi/kobs)*(1−exp(−kobs*X)) using Graph-Pad Prism v10.2.3. The obtained pseudo-first-order rate constant was used to determine the maximum enzyme inhibition rate (kinact) and binding affinity (KI) by fitting the plot of kobs against inhibitor concentration to the following equation: Y=kinact/1+(KI/[I]) . The efficiency of covalent bond formation (kapp) was calculated by the ratio of kinact/KI. All measurements were performed in triplicates and error bars represent standard errors of the fit.

[3] = tested on: serine hydrolases (≡FP target proteins) in HEK293 cell lysates; experiment: Competitive ABPP with fluorophosphonate-alkyne (≡FP) in HEK293 cell lysates; format: binding, H. sapiens; conditions: 50 µM pre-incubation 2 h, 2 µM ≡FP
DPP9 [4] = molecular target: T2, DPP9 (Homo sapiens, UniProt Q86TI2); experiment: biochemical; format: biochemical; parameters: purchased Proteros Biostructures GmbH, Germany
Protocol: as §1
Target sequence in this assay (Q86TI2 whole entry): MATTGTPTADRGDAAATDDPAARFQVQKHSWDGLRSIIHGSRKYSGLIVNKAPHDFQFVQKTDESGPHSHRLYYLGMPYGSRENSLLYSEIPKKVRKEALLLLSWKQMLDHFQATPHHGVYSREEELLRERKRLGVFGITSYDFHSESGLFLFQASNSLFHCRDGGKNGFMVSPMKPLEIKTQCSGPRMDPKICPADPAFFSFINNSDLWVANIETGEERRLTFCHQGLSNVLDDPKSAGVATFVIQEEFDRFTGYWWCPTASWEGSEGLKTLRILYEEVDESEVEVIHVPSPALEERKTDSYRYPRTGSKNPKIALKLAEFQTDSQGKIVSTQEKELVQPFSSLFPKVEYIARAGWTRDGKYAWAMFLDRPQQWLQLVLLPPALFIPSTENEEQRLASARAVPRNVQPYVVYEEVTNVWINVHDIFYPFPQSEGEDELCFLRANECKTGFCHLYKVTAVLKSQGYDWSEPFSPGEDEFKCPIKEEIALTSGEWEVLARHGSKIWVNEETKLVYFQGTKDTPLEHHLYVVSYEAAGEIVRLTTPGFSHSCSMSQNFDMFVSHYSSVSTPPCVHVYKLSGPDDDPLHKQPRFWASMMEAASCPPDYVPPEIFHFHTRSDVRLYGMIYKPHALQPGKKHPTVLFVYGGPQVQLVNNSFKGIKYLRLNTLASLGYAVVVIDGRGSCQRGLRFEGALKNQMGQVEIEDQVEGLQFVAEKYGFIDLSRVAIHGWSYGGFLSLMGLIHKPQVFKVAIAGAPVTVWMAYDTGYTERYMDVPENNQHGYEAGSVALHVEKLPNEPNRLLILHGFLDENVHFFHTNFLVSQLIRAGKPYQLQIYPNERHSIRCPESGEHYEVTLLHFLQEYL

DPP9 [5] = molecular target: T2, DPP9; experiment: Time-dependent DPP9 inhibition kinetics (kobs, KI, kinact, kapp); format: biochemical; parameters: purchased Proteros Biostructures GmbH, Germany
Protocol: as §2
Target sequence in this assay (Q86TI2 whole entry): as above

DPP9 [6] = molecular target: T2, DPP9; experiment: Native MS of DPP9 dimer after incubation with inhibitor; conditions: 50 µM, 90 min
Target sequence in this assay (Q86TI2 20-863): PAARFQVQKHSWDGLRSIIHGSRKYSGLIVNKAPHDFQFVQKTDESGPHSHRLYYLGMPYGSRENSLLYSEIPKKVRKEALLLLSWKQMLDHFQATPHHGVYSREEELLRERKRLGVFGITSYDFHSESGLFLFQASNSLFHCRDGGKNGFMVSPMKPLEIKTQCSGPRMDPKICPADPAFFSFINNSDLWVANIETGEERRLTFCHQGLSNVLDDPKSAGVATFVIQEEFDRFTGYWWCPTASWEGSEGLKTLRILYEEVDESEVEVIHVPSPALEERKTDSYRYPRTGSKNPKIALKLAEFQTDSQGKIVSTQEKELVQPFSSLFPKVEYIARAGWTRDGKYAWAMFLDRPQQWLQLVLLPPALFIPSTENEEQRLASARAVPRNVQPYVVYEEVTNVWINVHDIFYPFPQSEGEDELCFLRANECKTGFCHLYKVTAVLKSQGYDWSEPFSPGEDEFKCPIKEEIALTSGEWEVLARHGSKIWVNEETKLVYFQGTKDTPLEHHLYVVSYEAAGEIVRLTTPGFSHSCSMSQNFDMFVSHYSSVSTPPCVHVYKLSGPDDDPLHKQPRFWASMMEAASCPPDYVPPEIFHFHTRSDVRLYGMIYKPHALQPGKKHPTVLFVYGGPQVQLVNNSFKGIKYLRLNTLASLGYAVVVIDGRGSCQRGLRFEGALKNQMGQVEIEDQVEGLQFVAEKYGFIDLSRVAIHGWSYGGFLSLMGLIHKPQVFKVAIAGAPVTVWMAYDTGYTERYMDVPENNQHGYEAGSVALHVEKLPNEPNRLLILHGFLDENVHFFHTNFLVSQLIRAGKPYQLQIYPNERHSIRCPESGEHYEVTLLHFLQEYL
Protocol: For this purpose, a rebuffering procedure using 10 kDa molecular weight cut-off spin-filter columns (Merck Millipore, USA) was applied for five cycles[58]. The resulting protein concentration was determined using microvolume spectroscopy (DS-11+, DeNovix, USA) and adjusted to 5 µM with 200 mM NH4OAc. […] A total number of 1000 MS spectra were recorded in positive EMR mode on an Exactive Plus EMR Orbitrap mass spectrometer (Thermo Fisher Scientific, USA) calibrated with CsI (2 mg mL^-1; Thermo Fisher Scientific, USA).
UniDec software (version 6.0.4) was used for mass deconvolution[59]. For this purpose, the default settings were used within an m/z range of 6500 to 9500, with the exception of a higher deconvolution resolution (sample mass every 1 Da), a narrower peak detection window (peak detection range of 80 Da) and a total peak normalization. GraphPad Prism v8.0.1 was used for data visualization.

DPP4 = molecular target: T3, DPP4 (Homo sapiens, UniProt P27487); experiment: biochemical; format: biochemical
T3 construct: purchased Proteros Biostructures GmbH, Germany
Protocol: as §1

T3 sequence (P27487 whole entry): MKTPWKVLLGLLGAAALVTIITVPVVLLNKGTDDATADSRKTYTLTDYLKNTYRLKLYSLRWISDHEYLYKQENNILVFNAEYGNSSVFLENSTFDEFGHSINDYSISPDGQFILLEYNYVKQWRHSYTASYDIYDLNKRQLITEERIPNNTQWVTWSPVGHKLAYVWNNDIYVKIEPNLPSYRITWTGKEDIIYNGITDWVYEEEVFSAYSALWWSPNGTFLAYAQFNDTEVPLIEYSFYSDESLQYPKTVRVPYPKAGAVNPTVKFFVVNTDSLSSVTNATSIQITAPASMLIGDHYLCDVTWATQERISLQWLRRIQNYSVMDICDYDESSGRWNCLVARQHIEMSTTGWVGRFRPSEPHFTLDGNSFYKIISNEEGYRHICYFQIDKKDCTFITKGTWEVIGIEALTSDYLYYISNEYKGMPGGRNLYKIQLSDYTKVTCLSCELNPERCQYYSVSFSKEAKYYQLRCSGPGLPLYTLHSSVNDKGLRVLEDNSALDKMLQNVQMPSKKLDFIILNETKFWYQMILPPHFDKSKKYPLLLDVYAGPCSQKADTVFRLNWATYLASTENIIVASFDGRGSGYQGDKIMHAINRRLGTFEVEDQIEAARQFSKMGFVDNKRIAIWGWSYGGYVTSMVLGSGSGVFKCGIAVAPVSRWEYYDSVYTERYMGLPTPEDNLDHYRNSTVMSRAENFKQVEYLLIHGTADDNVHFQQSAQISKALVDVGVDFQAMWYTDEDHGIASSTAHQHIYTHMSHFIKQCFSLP
T1 sequence (Q6V1X1 whole entry): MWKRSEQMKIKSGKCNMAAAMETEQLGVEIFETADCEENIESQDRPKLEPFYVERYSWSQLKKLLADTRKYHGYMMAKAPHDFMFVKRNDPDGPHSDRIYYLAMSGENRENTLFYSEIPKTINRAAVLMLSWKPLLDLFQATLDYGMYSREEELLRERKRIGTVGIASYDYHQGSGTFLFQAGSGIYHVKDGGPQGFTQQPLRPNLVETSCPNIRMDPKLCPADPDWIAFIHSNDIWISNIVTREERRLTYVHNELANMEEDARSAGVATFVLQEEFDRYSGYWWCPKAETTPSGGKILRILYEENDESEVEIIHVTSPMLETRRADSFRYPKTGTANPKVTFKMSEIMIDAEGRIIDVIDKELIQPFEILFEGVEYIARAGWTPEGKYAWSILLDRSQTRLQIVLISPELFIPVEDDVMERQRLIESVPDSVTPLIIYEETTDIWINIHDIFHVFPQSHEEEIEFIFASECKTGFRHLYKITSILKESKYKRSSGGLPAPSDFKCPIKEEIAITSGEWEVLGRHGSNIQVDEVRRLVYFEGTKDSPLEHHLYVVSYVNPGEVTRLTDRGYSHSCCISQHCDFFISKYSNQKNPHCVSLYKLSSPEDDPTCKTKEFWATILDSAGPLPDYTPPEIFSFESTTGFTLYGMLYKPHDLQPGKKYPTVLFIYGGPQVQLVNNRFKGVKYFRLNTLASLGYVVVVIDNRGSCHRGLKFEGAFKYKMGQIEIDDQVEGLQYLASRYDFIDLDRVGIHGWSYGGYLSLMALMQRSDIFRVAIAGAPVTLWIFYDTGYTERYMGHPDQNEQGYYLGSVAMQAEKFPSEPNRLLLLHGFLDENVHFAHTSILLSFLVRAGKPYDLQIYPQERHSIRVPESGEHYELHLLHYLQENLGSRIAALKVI

SMILES: N[C@H]1CCCN([P@@](N)(=O)NS(=O)(=O)O)C1=O [Sulphostin]
- IC50 (DPP8 [1]): 6.93 ± 0.62 µM
- remaining activity at 1.5625 µM (DPP8 [1]; read-out: DPP8 activity [%], c 1562.5 nM): 93.5%
- remaining activity at 3.125 µM (DPP8 [1]; read-out: DPP8 activity [%], c 3125 nM): 73.6%
- remaining activity at 6.25 µM (DPP8 [1]; read-out: DPP8 activity [%], c 6250 nM): 47.7%
- remaining activity at 25 µM (DPP8 [1]; read-out: DPP8 activity [%], c 25000 nM): 11.8%
- remaining activity at 50 µM (DPP8 [1]; read-out: DPP8 activity [%], c 50000 nM): 5.62%
- remaining activity at 100 µM (DPP8 [1]; read-out: DPP8 activity [%], c 100000 nM): 3.57%
- kobs DPP8 (DPP8 [2]; c 1.5625 µM): 3.383e-05 s⁻¹
- kobs DPP8 (DPP8 [2]; c 6.25 µM): 4.011e-05 s⁻¹
- kobs DPP8 (DPP8 [2]; c 25 µM): 0.0001308 s⁻¹
- kobs DPP8 (DPP8 [2]; c 50 µM): 0.0001589 s⁻¹
- kapp DPP8 (DPP8 [2]; ratio kinact/KI): 11 M⁻¹ s⁻¹
- KI (inactivation) (DPP8 [2]; read-out: KI [M] best fit DPP8, source data): 2.11e-05 M
- competition of ≡FP labeling [3]: significantly competed only the labeling of DPP8/9
- IC50 (DPP9 [4]): 1.39 ± 0.108 µM
- remaining activity at 0.15625 µM (DPP9 [4]; read-out: DPP9 activity [%], c 156.25 nM): 93.2%
- remaining activity at 0.3125 µM (DPP9 [4]; read-out: DPP9 activity [%], c 312.5 nM): 87.7%
- remaining activity at 2.5 µM (DPP9 [4]; read-out: DPP9 activity [%], c 2500 nM): 28.5%
- remaining activity at 5 µM (DPP9 [4]; read-out: DPP9 activity [%], c 5000 nM): 16.7%
- remaining activity at 10 µM (DPP9 [4]; read-out: DPP9 activity [%], c 10000 nM): 10.8%
- remaining activity at 25 µM (DPP9 [4]; read-out: DPP9 activity [%], c 25000 nM): 5%
- remaining activity at 50 µM (DPP9 [4]; read-out: DPP9 activity [%], c 50000 nM): 3.52%
- remaining activity at 100 µM (DPP9 [4]; read-out: DPP9 activity [%], c 100000 nM): 2.34%
- kobs DPP9 (DPP9 [5]; c 0.15625 µM): 6.239e-05 s⁻¹
- kobs DPP9 (DPP9 [5]; c 5 µM): 0.0002112 s⁻¹
- kapp DPP9 (DPP9 [5]; ratio kinact/KI): 317 M⁻¹ s⁻¹
- KI (inactivation) (DPP9 [5]; read-out: KI [M] best fit DPP9, source data): 7.33e-07 M
- Difference [Da] between doubly and singly modified DPP9 dimer (DPP9 [6]): 156 Da
- Intensity [%] of DPP9 dimer with one modification (DPP9 [6]): 44.37%
- Intensity [%] of DPP9 dimer with two modifications (DPP9 [6]): 32.64%
- Intensity [%] of unmodified DPP9 dimer (DPP9 [6]): 22.99%
- increase of DPP9 molecular weight, both active sites of the dimer modified (DPP9 [6]): 311 Da
- increase of DPP9 molecular weight, first adduct (one active site of the dimer modified) (DPP9 [6]): 155 Da

SMILES: CC(C)[C@H](N)C(=O)N1CCC[C@H]1B(O)O [VbP, Val-boroPro, reference compound]
- DPP4 activity [%] (DPP4; c 1.6 nM): 67.4885% and 113.658% and 85.6002%
- DPP4 activity [%] (DPP4; c 3.1 nM): 70.6772% and 79.559% and 93.9074%
- DPP4 activity [%] (DPP4; c 6.3 nM): 51.4161% and 71.0555% and 74.1702%
- DPP4 activity [%] (DPP4; c 25 nM): 4.534% and 5.3397% and 4.7469%
- DPP4 activity [%] (DPP4; c 50 nM): 3.474% and 3.265% and 3.283%
- DPP4 activity [%] (DPP4; c 100 nM): 2.2772% and 2.383% and 2.483%

SMILES: NC1CCCN(P(N)(=O)NS(=O)(=O)O)C1=O (centres unmarked) [WTC0260B]
- IC50 (DPP8 [1]; GP-AMC 250 µM, 10 nM enzyme, 45 min pre-incubation at 30 °C, read-out: IC50 DPP8): 27.9 µM
- IC50 (DPP9 [4]; GP-AMC 250 µM, 10 nM enzyme, 45 min pre-incubation at 30 °C, read-out: IC50 DPP9): 6.26 µM
